Reference: the NIST ThermoML archive (doi:10.1016/j.jct.2008.10.010)

Experiment: molar heat capacity at constant pressure; xn = mol fraction of the nth substance listed
Details: 101.3 kPa, Liquid, Small sample (50 mg) DSC

CCC(C)(C)O [2-methylbutan-2-ol] + CCCCCCC
Details | molar heat capacity at constant pressure [J/K/mol]
327.15 K, x1 = 0.1547 | 258.26
327.15 K, x1 = 0.2993 | 269.94
327.15 K, x1 = 0.4051 | 274.66
327.15 K, x1 = 0.4986 | 277.47
327.15 K, x1 = 0.5981 | 279.08
327.15 K, x1 = 0.7015 | 280.02
327.15 K, x1 = 0.8023 | 279.59
327.15 K, x1 = 0.9139 | 278.56
327.15 K, x1 = 0.9609 | 277.44
328.15 K, x1 = 0.0061 | 236.22
328.15 K, x1 = 0.0249 | 237.72
328.15 K, x1 = 0.0494 | 242.15
328.15 K, x1 = 0.1 | 251.24
328.15 K, x1 = 0.1547 | 258.56
328.15 K, x1 = 0.1999 | 263.19
328.15 K, x1 = 0.2993 | 270.46
328.15 K, x1 = 0.4051 | 275.23
328.15 K, x1 = 0.4986 | 278.16
328.15 K, x1 = 0.5981 | 279.9
328.15 K, x1 = 0.7015 | 280.91
328.15 K, x1 = 0.8023 | 280.5
328.15 K, x1 = 0.9139 | 279.46
328.15 K, x1 = 0.9609 | 278.39
329.14 K, x1 = 0.0061 | 236.63
329.14 K, x1 = 0.0249 | 238.11
329.14 K, x1 = 0.0494 | 242.34
329.14 K, x1 = 0.1 | 251.42
329.14 K, x1 = 0.1547 | 258.8
329.14 K, x1 = 0.1999 | 263.54
329.14 K, x1 = 0.2993 | 270.92
329.14 K, x1 = 0.4051 | 275.78
329.14 K, x1 = 0.4986 | 278.83
329.14 K, x1 = 0.5981 | 280.59
329.14 K, x1 = 0.7015 | 281.67
329.14 K, x1 = 0.8023 | 281.37
329.14 K, x1 = 0.9139 | 280.33
329.14 K, x1 = 0.9609 | 279.29
330.14 K, x1 = 0.0061 | 237.14
330.14 K, x1 = 0.1 | 251.61
330.14 K, x1 = 0.1547 | 259.04
330.14 K, x1 = 0.2993 | 271.42
330.14 K, x1 = 0.4986 | 279.45
330.14 K, x1 = 0.5981 | 281.32
330.14 K, x1 = 0.7015 | 282.46
330.14 K, x1 = 0.8023 | 282.14
330.14 K, x1 = 0.9139 | 281.17
330.14 K, x1 = 0.9609 | 280.09
330.15 K, x1 = 0.0249 | 238.44
330.15 K, x1 = 0.0494 | 242.58
330.15 K, x1 = 0.1999 | 263.87
330.15 K, x1 = 0.4051 | 276.4
331.15 K, x1 = 0.0061 | 237.49
331.15 K, x1 = 0.0249 | 238.7
331.15 K, x1 = 0.0494 | 242.66
331.15 K, x1 = 0.1 | 251.73
331.15 K, x1 = 0.1547 | 259.17
331.15 K, x1 = 0.1999 | 264.08
331.15 K, x1 = 0.2993 | 271.78
331.15 K, x1 = 0.4051 | 276.82
331.15 K, x1 = 0.4986 | 280.03
331.15 K, x1 = 0.5981 | 282
331.15 K, x1 = 0.7015 | 283.13
331.15 K, x1 = 0.8023 | 282.9
331.15 K, x1 = 0.9139 | 281.93
331.15 K, x1 = 0.9609 | 280.9
332.11 K, x1 = 0.4051 | 277.29
332.14 K, x1 = 0.0061 | 237.91
332.14 K, x1 = 0.0249 | 239.06
332.14 K, x1 = 0.0494 | 242.88
332.14 K, x1 = 0.1 | 251.74
332.14 K, x1 = 0.1547 | 259.34
332.14 K, x1 = 0.1999 | 264.36
332.14 K, x1 = 0.2993 | 272.13
332.14 K, x1 = 0.4986 | 280.59
332.14 K, x1 = 0.5981 | 282.58
332.14 K, x1 = 0.7015 | 283.9
332.14 K, x1 = 0.8023 | 283.62
332.14 K, x1 = 0.9139 | 282.68
332.14 K, x1 = 0.9609 | 281.66
333.14 K, x1 = 0.0061 | 238.38
333.14 K, x1 = 0.0249 | 239.45
333.14 K, x1 = 0.0494 | 243.08
333.14 K, x1 = 0.1 | 251.95
333.14 K, x1 = 0.1547 | 259.59
333.14 K, x1 = 0.1999 | 264.68
333.14 K, x1 = 0.2993 | 272.54
333.14 K, x1 = 0.4051 | 277.88
333.14 K, x1 = 0.4986 | 281.17
333.14 K, x1 = 0.7015 | 284.62
333.14 K, x1 = 0.8023 | 284.48
333.14 K, x1 = 0.9139 | 283.56
333.14 K, x1 = 0.9609 | 282.52
333.15 K, x1 = 0.5981 | 283.29
334.04 K, x1 = 0.0249 | 239.87
334.15 K, x1 = 0.0061 | 238.94
334.15 K, x1 = 0.0494 | 243.42
334.15 K, x1 = 0.1 | 252.08
334.15 K, x1 = 0.1547 | 259.81
334.15 K, x1 = 0.1999 | 264.99
334.15 K, x1 = 0.2993 | 272.99
334.15 K, x1 = 0.4051 | 278.43
334.15 K, x1 = 0.4986 | 281.83
334.15 K, x1 = 0.5981 | 284.02
334.15 K, x1 = 0.7015 | 285.36
334.15 K, x1 = 0.8023 | 285.27
334.15 K, x1 = 0.9139 | 284.32
334.15 K, x1 = 0.9609 | 283.36
334.33 K, x1 = 0.0249 | 239.98
335.14 K, x1 = 0.0061 | 239.28
335.14 K, x1 = 0.0249 | 240.2
335.14 K, x1 = 0.0494 | 243.54
335.14 K, x1 = 0.1 | 252.23
335.14 K, x1 = 0.1547 | 259.88
335.14 K, x1 = 0.1999 | 265.1
335.14 K, x1 = 0.2993 | 273.19
335.14 K, x1 = 0.4051 | 278.76
335.14 K, x1 = 0.4986 | 282.26
335.14 K, x1 = 0.5981 | 284.55
335.14 K, x1 = 0.7015 | 286
335.14 K, x1 = 0.8023 | 285.89
335.14 K, x1 = 0.9139 | 285.08
335.14 K, x1 = 0.9609 | 284.15
336.14 K, x1 = 0.0061 | 239.67
336.14 K, x1 = 0.0249 | 240.6
336.14 K, x1 = 0.0494 | 243.78
